From US20100184596A1, “METHOD FOR THE CONTROL OF WEEDS IN TURF” (SYNGENTA CROP PROTECTION, INC., priority 2007, published 2010)

System: turfgrass
Assay: Example B4, conclusion in words
Assay type: in vivo
Conditions: applied with Formula I
Method: The phytotoxicity to turfgrass of the compound of formula I in combination with various safeners was tested. The combinations were applied by post emergence spray application. Percentage phytotoxicity assessments were taken at various timepoints. The safeners tested in these trials were cloquintocet-mexyl, cyprosulfamide, a compound of formula 2.3, and isoxadifen-ethyl.

COc1ccccc1C(=O)NS(=O)(=O)c1ccc(C(=O)NC2CC2)cc1 [cyprosulfamide]
safener effectiveness, in words: particular effective safeners

CNC(=O)Nc1ccc(S(=O)(=O)NC(=O)c2ccccc2OC)cc1 [Formula 2.3]
safener effectiveness, in words: particular effective safeners
